# Measured values published in ChEMBL document CHEMBL5620396, “Phenotypic screening identifies a trisubstituted imidazo[1,2-a]pyridine series that induces differentiation in multiple AML cell lines” (Eur J Med Chem, 2023).
# The source made the active and inactive calls. The rule behind the calls is not given here.
# Key:
# [1] = Dose normalized AUC (0 to 8 hrs) in CD-1 mouse at 20 mg/kg, po administered as single dose and measured on day 1; type: ADME, organism-based; details: in vivo, 24 h, time 1 day
# THP-1 [2] = experiment: Induction of differentiation in human THP-1 cells assessed as upregulation of CD11b response incubated for 4 days by flow cytometry analysis; details: THP-1, 96 h
# OCI-AML-3 [3] = experiment: Induction of differentiation in human OCI-AML-3 cells assessed as upregulation of CD11b response incubated for 4 days by flow cytometry analysis; details: OCI-AML-3, 96 h
# HL-60 [4] = experiment: Induction of morphological changes in human HL-60 cells assessed as variations in nuclear segmentation at 10 uM; type: functional, cell-based
# HL-60 [5] = experiment: Induction of morphological changes in human HL-60 cells assessed as appearance of granules and vacuoles at 10 uM; type: functional, cell-based
# [6] = Semi-thermodynamic aqueous solubility of compound; type: physicochemical; details: buffer; read-out: Therm_solubility
# [7] = Solubility of compound at pH 7; type: physicochemical; details: buffer
# [8] = Solubility of compound at pH 1; type: physicochemical; details: buffer
# [9] = Apparent permeability across apical to basolateral side in human Caco-2 cells; type: ADME, cell-based
# THP-1 [10] = experiment: Induction of differentiation in human THP-1 cells assessed as reduction in live cell number at 123 nM incubated for 4 days by acridine orange/DAPI staining based analysis; type: functional; details: time 4.0 day
# OCI-AML-3 [11] = experiment: Induction of differentiation in human OCI-AML-3 cells assessed as reduction in live cell number at 123 nM incubated for 4 days by acridine orange/DAPI staining based analysis; type: functional; details: time 4.0 day
# KG-1 [12] = experiment: Induction of differentiation in human KG-1 cells assessed as reduction in live cell number at 123 nM incubated for 4 days by acridine orange/DAPI staining based analysis; type: functional; details: time 4.0 day
# ME-1 [13] = experiment: Induction of differentiation in human ME-1 cells assessed as reduction in live cell number at 123 nM incubated for 4 days by acridine orange/DAPI staining based analysis; type: functional; details: time 4.0 day
# HL-60 [14] = experiment: Induction of morphological changes in human HL-60 cells assessed as variations in cell size and shape at 10 uM; type: functional, cell-based
# HL-60 [15] = experiment: Induction of morphological changes in human HL-60 cells assessed as variations in nuclear:cytoplasmic ratio at 10 uM; type: functional, cell-based
# THP-1 [16] = experiment: Induction of morphological changes in human THP-1 cells assessed as variations in cell size and shape at 10 uM; type: functional, cell-based
# THP-1 [17] = experiment: Induction of morphological changes in human THP-1 cells assessed as variations in nuclear segmentation at 10 uM; type: functional, cell-based
# THP-1 [18] = experiment: Induction of morphological changes in human THP-1 cells assessed as appearance of granules and vacuoles at 10 uM; type: functional, cell-based
# OCI-AML-3 [19] = experiment: Induction of morphological changes in human OCI-AML-3 cells assessed as variations in nuclear:cytoplasmic ratio at 10 uM; type: functional, cell-based
# OCI-AML-3 [20] = experiment: Induction of morphological changes in human OCI-AML-3 cells assessed as appearance of granules and vacuoles at 10 uM; type: functional, cell-based
# KG-1 [21] = experiment: Induction of morphological changes in human KG-1 cells assessed as variations in cell size and shape at 10 uM; type: functional, cell-based
# KG-1 [22] = experiment: Induction of morphological changes in human KG-1 cells assessed as variations in nuclear:cytoplasmic ratio at 10 uM; type: functional, cell-based
# ME-1 [23] = experiment: Induction of morphological changes in human ME-1 cells assessed as variations in cell size and shape at 10 uM; type: functional, cell-based
# ME-1 [24] = experiment: Induction of morphological changes in human ME-1 cells assessed as variations in nuclear segmentation at 10 uM; type: functional, cell-based
# ME-1 [25] = experiment: Induction of morphological changes in human ME-1 cells assessed as variations in nuclear:cytoplasmic ratio at 10 uM; type: functional, cell-based
# ME-1 [26] = experiment: Induction of morphological changes in human ME-1 cells assessed as appearance of granules and vacuoles at 10 uM; type: functional, cell-based
# Kasumi 1 [27] = experiment: Induction of morphological changes in human Kasumi 1 cells assessed as variations in cell size and shape at 10 uM; type: functional, cell-based
# Kasumi 1 [28] = experiment: Induction of morphological changes in human Kasumi 1 cells assessed as variations in nuclear segmentation at 10 uM; type: functional, cell-based
# Kasumi 1 [29] = experiment: Induction of morphological changes in human Kasumi 1 cells assessed as appearance of granules and vacuoles at 10 uM; type: functional, cell-based
# [30] = Half life in CD-1 mouse at 3 mg/kg, po administered as single dose and measured over 24 hrs; type: ADME, organism-based; details: in vivo
# [31] = Apparent clearance in CD-1 mouse at 3 mg/kg, po administered as single dose and measured over 24 hrs; type: ADME, organism-based; details: in vivo
# [32] = Apparent volume of distribution during terminal phase in CD-1 mouse at 3 mg/kg, po administered as single dose and measured over 24 hrs; type: ADME, organism-based; details: in vivo, read-out: Vz/F
# [33] = Dose normalized AUC (0 to 8 hrs) in CD-1 mouse at 3 mg/kg, po administered as single dose and measured over 24 hrs; type: ADME, organism-based; details: in vivo
# [34] = Cmax in CD-1 mouse at 3 mg/kg, po administered as single dose and measured over 24 hrs; type: ADME, organism-based; details: in vivo
# [35] = Dose normalized Cmax in CD-1 mouse at 3 mg/kg, po administered as single dose and measured over 24 hrs; type: ADME, organism-based; details: in vivo
# [36] = Dose normalized Cmax in CD-1 mouse at 20 mg/kg, po administered as single dose and measured on day 1; type: ADME, organism-based; details: in vivo, 24 h, time 1 day
# [37] = Half life in CD-1 mouse at 20 mg/kg, po administered as repeated dose on day 1 and 4; type: ADME, organism-based; details: in vivo, time 4 day
# [38] = AUC (0 to 8 hrs) in CD-1 mouse at 20 mg/kg, po administered as repeated dose on day 1 and 4; type: ADME, organism-based; details: in vivo, time 4 day
# [39] = Dose normalized AUC (0 to 8 hrs) in CD-1 mouse at 20 mg/kg, po administered as repeated dose on day 1 and 4; type: ADME, organism-based; details: in vivo, 96 h, time 4 day
# [40] = Cmax in CD-1 mouse at 20 mg/kg, po administered as repeated dose on day 1 and 4; type: ADME, organism-based; details: in vivo, time 4 day
# [41] = Dose normalized Cmax in CD-1 mouse at 20 mg/kg, po administered as repeated dose on day 1 and 4; type: ADME, organism-based; details: in vivo, 96 h, time 4 day
# [42] = AUC (0 to 8 hrs) in CD-1 mouse at 1 mg/kg, po administered as single dose and measured on day 1; type: ADME, organism-based; details: in vivo, time 1 day
# [43] = Dose normalized AUC (0 to 8 hrs) in CD-1 mouse at 1 mg/kg, po administered as single dose and measured on day 1; type: ADME, organism-based; details: in vivo, 24 h, time 1 day
# [44] = Cmax in CD-1 mouse at 1 mg/kg, po administered as single dose and measured on day 1; type: ADME, organism-based; details: in vivo, time 1 day
# [45] = Dose normalized Cmax in CD-1 mouse at 1 mg/kg, po administered as single dose and measured on day 1; type: ADME, organism-based; details: in vivo, 24 h, time 1 day
# [46] = Cmax in CD-1 mouse at 1 mg/kg, po administered as repeated dose on day 1 and 4; type: ADME, organism-based; details: in vivo, time 4 day
# [47] = Dose normalized Cmax in CD-1 mouse at 1 mg/kg, po administered as repeated dose on day 1 and 4; type: ADME, organism-based; details: in vivo, 96 h, time 4 day
# [48] = Toxicity in CD-1 mouse assessed as adverse effects at 3 mg/kg, po administered twice daily for 7 days; type: organism-based; details: in vivo, 168 h, time 7 day
compound,measurement,setting,value
Cc1cc(F)ccc1-c1cc(NS(C)(=O)=O)c2ncc(-c3ccc4c(cnn4C)c3)n2c1,AUC/dose,[1],223 ng·h/mL
same,EC50,THP-1 [2],69 nM
same,EC50,OCI-AML-3 [3],25 nM
same,Activity,HL-60 [4],Active
same,Activity,HL-60 [5],Active
same,solubility thermodynamic,[6],21 µM
same,solubility,[7],21 µM
same,solubility,[8],> 100 µM
same,Papp A→B,[9],16 ×10⁻⁶ cm/s
same,Activity,THP-1 [10],Active
same,Activity,OCI-AML-3 [11],Active
same,Activity,KG-1 [12],Active
same,Activity,ME-1 [13],Active
same,Activity,HL-60 [14],Active
same,Activity,HL-60 [15],Active
same,Activity,THP-1 [16],Active
same,Activity,THP-1 [17],Active
same,Activity,THP-1 [18],Active
same,Activity,OCI-AML-3 [19],Active
same,Activity,OCI-AML-3 [20],Active
same,Activity,KG-1 [21],Active
same,Activity,KG-1 [22],Active
same,Activity,ME-1 [23],Active
same,Activity,ME-1 [24],Active
same,Activity,ME-1 [25],Active
same,Activity,ME-1 [26],Active
same,Activity,Kasumi 1 [27],Active
same,Activity,Kasumi 1 [28],Active
same,Activity,Kasumi 1 [29],Active
same,half-life,[30],2.2 h
same,CL/F,[31],16 mL/min/kg
same,Vd/F,[32],3.1 L/kg
same,AUC/dose,[33],1021 ng·h/mL
same,Cmax,[34],360 ng/mL
same,Cmax/dose,[35],120 ng/mL
same,Cmax/dose,[36],34 ng/mL
same,half-life,[37],4.1 h
same,AUC(0-t) at 96 h,[38],4370 ng·h/mL
same,AUC/dose,[39],218 ng·h/mL
same,Cmax,[40],784 ng/mL
same,Cmax/dose,[41],39 ng/mL
same,AUC(0-t) at 24 h,[42],845 ng·h/mL
same,AUC/dose,[43],845 ng·h/mL
same,Cmax,[44],187 ng/mL
same,Cmax/dose,[45],187 ng/mL
same,Cmax,[46],204 ng/mL
same,Cmax/dose,[47],204 ng/mL
same,Activity,[48],Non-Toxic
